According to US20200277649A1, “BROAD SPECTRUM DETECTION OF DNA DAMAGE BY REPAIR ASSISTED DAMAGE DETECTION (RADD)” (University of South Alabama, priority 2017, published 2020):

Tested on: CHO-K1 cells
Assay: RADD detection of BrdU incorporation into genomic DNA
Type: cell-based, Chinese hamster
Settings: CHO-K1 cells sensitized 24 h, versus basal levels, FIG. 5A

O=c1[nH]c(=O)n([C@H]2C[C@H](O)[C@@H](CO)O2)cc1Br [BrdU, bromodeoxyuridine]
RADD mean fluorescence intensity of the nucleus (DNA lesions): increased levels of DNA lesions
